# Laboratory results from patent EP0807626A1, “N-HYDROXYUREA DERIVATIVES” (Nikken Chemicals Company, Limited, priority 1995, dated 1996).
# pIC50: −log10 of the molar value.
# Experiments:
# lipoxygenase = molecular target: T1, lipoxygenase (Rattus norvegicus, UniProt P12527); assay: Test of lipoxygenase inhibitory action (production of leukotriene B4 in rat polymorphonuclear leukocytes); format: cell-based; conditions: inhibiting the production of leukotriene B4, calcium ionophore A-23187, EIA, read-out: LTBI IC50
# T1 construct: the peritoneal cavities were lavaged and the polymorphonuclear leukocytes were recovered; endogenous in cells; host or cells: casein-elicited peritoneal polymorphonuclear leukocytes of Wistar male rats
# T1 sequence (P12527 1-673): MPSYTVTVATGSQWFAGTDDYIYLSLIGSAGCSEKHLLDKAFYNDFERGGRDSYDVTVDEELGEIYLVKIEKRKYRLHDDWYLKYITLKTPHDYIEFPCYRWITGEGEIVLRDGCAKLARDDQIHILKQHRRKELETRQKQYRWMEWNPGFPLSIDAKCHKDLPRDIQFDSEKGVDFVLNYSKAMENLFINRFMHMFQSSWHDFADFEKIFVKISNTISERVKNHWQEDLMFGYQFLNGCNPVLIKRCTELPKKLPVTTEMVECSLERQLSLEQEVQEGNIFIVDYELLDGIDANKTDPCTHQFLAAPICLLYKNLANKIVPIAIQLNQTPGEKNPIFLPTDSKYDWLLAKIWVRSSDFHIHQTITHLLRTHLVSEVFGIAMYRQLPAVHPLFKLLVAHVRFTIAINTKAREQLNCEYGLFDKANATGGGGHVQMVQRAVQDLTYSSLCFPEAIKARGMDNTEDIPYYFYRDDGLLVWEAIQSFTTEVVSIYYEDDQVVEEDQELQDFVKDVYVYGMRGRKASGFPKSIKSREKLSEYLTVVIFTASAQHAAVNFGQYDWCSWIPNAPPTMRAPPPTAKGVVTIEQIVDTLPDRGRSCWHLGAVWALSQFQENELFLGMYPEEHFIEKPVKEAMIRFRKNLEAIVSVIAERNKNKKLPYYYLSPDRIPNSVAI
# Procedure: Using rat polymorphonuclear leukocytes, a test of the lipoxygenase inhibitory activity of the test compounds was determined the amount of production of leukotriene B4.
# Wistar male rats (Japan Clea) were intraperitoneally administered with 12% sodium casein. After 16 hours, the peritoneal cavities were lavaged and the polymorphonuclear leukocytes were recovered. The obtained polymorphonuclear leukocytes were suspended in a phosphate buffer (137 mM NaCl, 3 mM KCl, 8 mM Na2HPO4, 2 mM KH2PO4) (2.5 × 10^5 cells/0.4 ml), then the incubation was carried out at 37°C for 10 minutes the test compound (final concentration 10^-5M) was added and then for 5 minutes after a calcium solution (10 mM CaCl2, 0.86% NaCl) 0.1 ml was added, then 1.25 µl of calcium ionophore (20 µM, A-23187) was added and the reaction started. Five minutes after the addition, 250 µl of methanol was added to stop the reaction. After the reaction was stopped, the resultant mixture was centrifuged for 20 minutes (4°C, 3000 rpm), then the amount of leukotriene B4 in the supernatant was measured by the EIA method (Cayman Co. kit).
# As the test compound, the above mentioned Compound 1 to Compound 4, Compound 9 to Compound 11, Compound 22 to Compound 26, Compound 28, Compound 29, compound 32, Compound 33, and Compound 40 to Compound 48 were used.
# thromboxane synthase = molecular target: T2, thromboxane synthase (Homo sapiens, UniProt P24557); assay: Test of thromboxane synthase inhibitory action (production of thromboxane B2 in human platelet microsomes); format: biochemical; conditions: suppressing production of thromboxane (thromboxane B2), prostaglandin H2, EIA, read-out: TxSI IC50
# T2 construct: containing human platelet microsomes (50 µg protein/ml) and the test compound; from tissue; host or cells: human platelet microsomes
# T2 sequence (P24557 1-533): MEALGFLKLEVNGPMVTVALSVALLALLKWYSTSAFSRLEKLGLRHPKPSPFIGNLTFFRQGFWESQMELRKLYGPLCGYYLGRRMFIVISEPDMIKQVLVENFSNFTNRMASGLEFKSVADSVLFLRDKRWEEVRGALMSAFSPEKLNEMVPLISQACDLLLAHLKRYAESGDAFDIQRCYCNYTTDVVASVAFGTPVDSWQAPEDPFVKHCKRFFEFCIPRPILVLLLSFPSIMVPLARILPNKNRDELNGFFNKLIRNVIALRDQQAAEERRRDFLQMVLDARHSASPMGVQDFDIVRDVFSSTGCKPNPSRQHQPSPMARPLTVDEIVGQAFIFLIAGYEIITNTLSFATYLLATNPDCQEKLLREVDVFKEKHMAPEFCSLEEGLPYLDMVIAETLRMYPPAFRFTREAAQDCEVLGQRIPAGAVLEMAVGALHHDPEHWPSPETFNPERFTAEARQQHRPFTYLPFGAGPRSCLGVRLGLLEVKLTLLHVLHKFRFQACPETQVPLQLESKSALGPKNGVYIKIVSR
# Procedure: Human platelet microsomes were used and a test of the thromboxane synthase inhibitory activity of the compounds was determined by the amount of production of thromboxane B2 as the thromboxane A2 stable metabdite.
# […] A reaction was initiated to added prostaglandin H2 (100 ng/2 µl), and terminated with 1N hydrocloric acid. Then neutralized by 1M Tris-base, and centrifuged at 3000 rpm for 20 minutes. The content of the thromboxane B2 in the supernatent was measured by the EIA method (Cayman Co. kit).
# As the test compound, the same compounds as in Test Example 1 were used.
# [1] = test system: antigen-induced bronchoconstriction; assay: Antigen-induced bronchoconstriction model of guinea pig (Konzett-Rossler method); format: in vivo; conditions: Cavia porcellus, po, 1 h; guinea pigs sensitized by ovalbumin, orally administered, one hour after administration; read-out: Suppression of Respiratory Constriction (ED50: mg/kg)
# Procedure: Guinea pigs sensitized by ovalbumin were used and orally administered with the test compound suspended in 5% gum arabic. The activity for suppressing antigen-induced bronchoconstriction after one hour after administration was measured by the Konzett-Rossler method.
# Each of the sensitized guinea pigs was anesthesized by 35 mg/kg pentobarbital, a airway cannula was inserted into the trachea and connected to an artificial respirator and transducer, a vein cannula was inserted into the jugular vein, and treatment was performed by 5 mg/kg soxamethonium and 5 mg/kg mepyramine. Next, the guinea pig was inhaled a nebulized ovalbumin to cause bronchoconstriction and the activity in suppressing bronchoconstriction was found from the ratio of the amount of overflow volume to the detector to the amount of air blown volume from the artificial respirator.
# As the test compound, the Compound 7 was used. […]
Structure (SMILES),pIC50 (lipoxygenase),pIC50 (thromboxane synthase),ED50 [1]
"NC(=O)N(O)CCCCC/C=C(/c1ccccc1)c1cccnc1 [Compound 2, N-hydroxy-N-[(Z)-7-phenyl-7-(3-pyridyl)-6-hepten-1-yl]urea]",7.22,7.70,
"O=C(NC1CCCCC1)N(O)CCCCC/C=C(/c1ccccc1)c1cccnc1 [Compound 3, N'-cyclohexyl-N-hydroxy-N-[(Z)-7-phenyl-7-(3-pyridyl)-6-hepten-1-yl]urea]",7.30,8.05,
"NC(=O)N(O)CCCC(c1ccccc1)c1cccnc1 (centres unmarked) [Compound 7, N-hydroxy-N-[4-phenyl-4-(3-pyridyl)butyl]urea]",,,70 mg/kg
"O=C(NC1CCCCC1)N(O)CCCC(c1ccccc1)c1cccnc1 (centres unmarked) [Compound 9, N'-cyclohexyl-N-hydroxy-N-[4-phenyl-4-(3-pyridyl)butyl]urea]",6.00,9.52,
"ON(CCCC(c1ccccc1)c1cccnc1)C(=S)NC1CCCCC1 (centres unmarked) [Compound 10, N'-cyclohexyl-N-hydroxy-N-[4-phenyl-4-(3-pyridyl)butyl]thiourea]",6.52,9.05,
"NC(=S)N(O)CCCCCC(c1ccccc1)c1cccnc1 (centres unmarked) [Compound 22, N-hydroxy-N-[6-phenyl-6-(3-pyridyl)hexyl]thiourea]",6.70,8.40,
"ON(CCCCCCCC(c1ccccc1)c1cccnc1)C(=S)Nc1ccccc1 (centres unmarked) [Compound 29, N-hydroxy-N'-phenyl-N-[8-phenyl-8-(3-pyridyl)octyl]thiourea]",7.40,8.70,
"NC(=O)N(O)Cc1cccc(OC(c2ccccc2)c2cccnc2)c1 (stereo not drawn) [Compound 42, N-hydroxy-N-[3-[α-(3-pyridyl)benzyloxy]benzyl]urea]",6.52,7.22,
"CC(c1cccc(OC(c2ccccc2)c2cccnc2)c1)N(O)C(N)=O (stereo not drawn) [Compound 46, N-hydroxy-N-[3-[α-(3-pyridyl)benzyloxy]-α-methylbenzyl]urea]",6.00,8.05,
"NC(=O)N(O)Cc1cccc(CC(c2ccccc2)c2cccnc2)c1 (stereo not drawn) [Compound 47, N-hydroxy-N-[3-[β-(3-pyridyl)phenethyl]benzyl]urea]",6.52,7.70,
CC(c1cc2ccccc2s1)N(O)C(N)=O (centres unmarked) [Compound A-64077],,,300 mg/kg
O=C(O)/C=C/c1ccc(Cn2ccnc2)cc1 [OKY-046],,,260 mg/kg

# More lines, in order of rising pIC50 (lipoxygenase), values ahead:
pIC50 (lipoxygenase),pIC50 (thromboxane synthase),Structure (SMILES),ED50 [1]
5.70,8.22,"NC(=O)N(O)CCC=C(c1cccnc1)c1cccc(C(F)(F)F)c1 [Compound 4, N-hydroxy-N-[4-(3-pyridyl)-4-(3-trifluoromethylphenyl)-3-buten-1-yl] urea]",
6.10,7.52,"CC(c1cccc(CC(c2ccccc2)c2cccnc2)c1)N(O)C(N)=O (stereo not drawn) [Compound 48, N-hydroxy-N-[3-[β-(3-pyridyl)phenethyl]-α-methylbenzyl]urea]",
6.30,8.70,"COc1cccc(NC(=O)N(O)CCCC(c2ccccc2)c2cccnc2)c1 (centres unmarked) [Compound 11, N-hydroxy-N'-(3-methoxyphenyl)-N-[4-phenyl-4-(3-pyridyl)butyl]urea]",
6.30,7.30,"NC(=O)N(O)Cc1ccc(OC(c2ccccc2)c2cccnc2)cc1 (stereo not drawn) [Compound 43, N-hydroxy-N-[4-[α-(3-pyridyl)benzyloxy]benzyl]urea]",
6.40,9.05,"NC(=O)N(O)CCCCC/C=C(\c1ccccc1)c1cccnc1 [Compound 1, N-hydroxy-N-[(E)-7-phenyl-7-(3-pyridyl)-6-hepten-1-yl]urea]",
6.70,8.22,"CCNC(=O)N(O)CCCCCC(c1ccccc1)c1cccnc1 (centres unmarked) [Compound 23, N'-ethyl-N-hydroxy-N-[6-phenyl-6-(3-pyridyl)hexyl]urea]",
6.70,7.52,"NC(=O)N(O)C/C=C/CCCC(c1ccccc1)c1cccnc1 (centres unmarked) [Compound 40, N-hydroxy-N-[(E)-7-phenyl-7-(3-pyridyl)-2-hepten-1-yl]urea]",
6.70,8.30,"CC(/C=C/CCCC(c1ccccc1)c1cccnc1)N(O)C(N)=O (centres unmarked) [Compound 41, N-hydroxy-N-[(E)-1-methyl-7-phenyl-7-(3-pyridyl)-2-hepten-1-yl]urea]",
6.70,8.30,"O=C(NC1CCCCC1)N(O)Cc1cccc(OC(c2ccccc2)c2cccnc2)c1 (stereo not drawn) [Compound 44, N'-cyclohexyl-N-hydroxy-N-[3-[α-(3-pyridyl)benzyloxy]benzyl]urea]",
7.00,8.15,"CC(CCCCCC(c1ccccc1)c1cccnc1)N(O)C(N)=O (centres unmarked) [Compound 28, N-hydroxy-N-[1-methyl-7-phenyl-7-(3-pyridyl)heptyl]urea]",
7.00,8.05,"CC(CCCCCCCC(c1ccccc1)c1cccnc1)N(O)C(=S)NC1CCCCC1 (centres unmarked) [Compound 32, N'-cyclohexyl-N-hydroxy-N-[1-methyl-9-phenyl-9-(3-pyridyl)nonyl]thiourea]",
7.05,8.22,"COc1cccc(NC(=O)N(O)Cc2cccc(OC(c3ccccc3)c3cccnc3)c2)c1 (stereo not drawn) [Compound 45, N-hydroxy-N'-(3-methoxyphenyl)-N-[3-[α-(3-pyridyl)benzyloxy]benzyl] urea]",
7.10,8.00,"NC(=O)N(O)CCCCCCC(c1ccccc1)c1cccnc1 (centres unmarked) [Compound 24, N-hydroxy-N-[7-phenyl-7-(3-pyridyl)heptyl]urea]",
7.22,8.30,"O=C(NC1CCCCC1)N(O)CCCCCCC(c1ccccc1)c1cccnc1 (centres unmarked) [Compound 25, N'-cyclohexyl-N-hydroxy-N-[7-phenyl-7-(3-pyridyl)heptyl]urea]",
7.40,8.70,"COc1cccc(NC(=O)N(O)CCCCCCC(c2ccccc2)c2cccnc2)c1 (centres unmarked) [Compound 26, N-hydroxy-N'-(3-methoxyphenyl)-N-[7-phenyl-7-(3-pyridyl)heptyl]urea]",
8.00,8.00,"NC(=O)N(O)CCCCCCCCCC(c1ccccc1)c1cccnc1 (centres unmarked) [Compound 33, N-hydroxy-N-[10-phenyl-10-(3-pyridyl)decyl]urea]",
